Results on 20 molecules are retold here after US10918645B2 (LIFEARC, priority 2016, dated 2021).

Usually IC50 stands for the midpoint of a concentration-inhibition curve. Low readings indicate inhibition by little substance, high ones a need for much substance.

For this experiment, the target named is LRRK2 G2019S (Homo sapiens (Human), UniProt Q5S007, G2019S). Briefly: Adapta Kinase Assay (LRRK2_IC50 assay). As to conditions: inhibition of LRRK2 G2019S. The format is biochemical. On the procedure: In Adapta™ Kinase Assay (LRRK2_IC50 assay): the Kinase Reaction Buffer contained 5× Kinase Buffer S (Life Technologies, PV5213) and 2 mM DTT (Life Technologies, P2325).
LRRK2 G2019S, sequence (Q5S007 970-2527 G2019S): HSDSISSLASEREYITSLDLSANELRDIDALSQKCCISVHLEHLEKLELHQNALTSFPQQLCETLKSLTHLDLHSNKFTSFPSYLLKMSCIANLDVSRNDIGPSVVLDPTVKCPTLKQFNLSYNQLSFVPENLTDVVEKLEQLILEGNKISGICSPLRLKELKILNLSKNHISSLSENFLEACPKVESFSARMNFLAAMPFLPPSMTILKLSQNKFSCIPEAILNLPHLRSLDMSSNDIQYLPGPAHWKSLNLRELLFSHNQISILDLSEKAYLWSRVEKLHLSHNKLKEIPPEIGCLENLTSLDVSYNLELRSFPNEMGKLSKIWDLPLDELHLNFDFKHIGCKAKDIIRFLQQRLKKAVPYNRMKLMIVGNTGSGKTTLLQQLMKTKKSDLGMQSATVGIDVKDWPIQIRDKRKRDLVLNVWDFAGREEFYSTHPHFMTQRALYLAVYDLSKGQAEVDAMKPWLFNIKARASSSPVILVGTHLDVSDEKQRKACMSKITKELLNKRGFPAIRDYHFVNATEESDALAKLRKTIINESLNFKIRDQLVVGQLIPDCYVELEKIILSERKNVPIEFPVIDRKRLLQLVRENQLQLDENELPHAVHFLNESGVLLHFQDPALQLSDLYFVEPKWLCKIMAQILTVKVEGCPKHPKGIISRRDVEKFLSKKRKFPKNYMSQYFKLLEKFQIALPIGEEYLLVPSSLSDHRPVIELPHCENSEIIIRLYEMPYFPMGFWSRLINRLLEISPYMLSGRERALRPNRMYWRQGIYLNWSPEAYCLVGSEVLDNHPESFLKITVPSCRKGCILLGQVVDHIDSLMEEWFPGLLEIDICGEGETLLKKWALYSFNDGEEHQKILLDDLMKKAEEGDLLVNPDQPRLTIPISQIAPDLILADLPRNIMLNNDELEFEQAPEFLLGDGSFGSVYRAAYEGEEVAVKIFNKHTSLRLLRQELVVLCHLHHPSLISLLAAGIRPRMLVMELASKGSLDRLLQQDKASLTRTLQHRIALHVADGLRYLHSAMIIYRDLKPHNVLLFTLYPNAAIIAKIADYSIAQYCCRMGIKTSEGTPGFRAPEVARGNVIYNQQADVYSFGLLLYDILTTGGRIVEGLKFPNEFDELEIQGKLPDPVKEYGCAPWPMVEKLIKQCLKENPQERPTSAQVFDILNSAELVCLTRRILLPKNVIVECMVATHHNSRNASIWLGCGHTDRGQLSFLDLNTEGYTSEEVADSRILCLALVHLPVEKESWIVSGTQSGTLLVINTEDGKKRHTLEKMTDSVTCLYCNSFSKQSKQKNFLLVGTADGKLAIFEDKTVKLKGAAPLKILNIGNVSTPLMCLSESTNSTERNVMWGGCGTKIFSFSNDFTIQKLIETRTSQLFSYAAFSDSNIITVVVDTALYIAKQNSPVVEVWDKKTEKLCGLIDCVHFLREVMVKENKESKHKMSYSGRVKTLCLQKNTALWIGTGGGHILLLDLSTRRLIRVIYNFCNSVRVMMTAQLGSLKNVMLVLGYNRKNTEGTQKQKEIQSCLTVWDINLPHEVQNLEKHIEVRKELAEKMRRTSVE
The Adapta® universal kinase assay is a homogenous, fluorescent based immunoassay for the detection of ADP. In contrast to ATP depletion assays, the Adapta® assay is extremely sensitive to ADP formation such that a majority of the signal change occurs in the first 10-20% conversion of ATP to ADP. This makes the Adapta® universal kinase assay ideally suited for use with low activity kinases.
Prepare a 1× solution of kinase reaction buffer from the 5× Kinase Buffer S stock (listed above) by adding 2 ml of 5× stock to 8 ml of H2O to make 10 ml of 1× kinase reaction buffer. To this, add 20 μl of 1 M DTT.
Kinase reactions are performed in a 10 μl volume in low-volume 384-well plates. […] Other non—treated assay plates, while not tested, may also be suitable. The concentration of substrate in the assay is 100 μM, and the 1× kinase reaction buffer consists of 50 mM Tris-HCl pH8.5, 10 mM MgCl2, 1 mM EGTA, 0.01% Brij-35, and 2 mM DTT, plus any additional additives that may be required for a specific kinase. […] The plate is allowed to equilibrate at room temperature for at least 30 minutes before being read on a plate reader configured for Adapta™ TR-FRET.
The data presented in this document were generated using a BMG LABTECH PHERAstar plate reader using the appropriate filters and instrument settings for Adapta™. The Test Compounds are screened in 1% DMSO (final) in the well. For 8 point titrations, 5-fold serial dilutions are conducted from the starting concentration.
IC50 estimates were obtained using the software XLfit (IDBS Inc.).
For “2-(5,11-dihydro-4H-3,4,10,11-tetraazadibenzo[cd,h]azulen-4-yl)ethan-1-ol [Example 57]”, the half-inhibitory concentration (IC50) was 260 nM.

For “4-(sec-butyl)-5,11-dihydro-4H-3,4,10,11-tetraazadibenzo[cd,h]azulene [Example 50]”, inhibition was half-maximal at 120 nM (IC50).

As for “4-cyclobutyl-4,11-dihydro-5H-3,4,10,11-tetraazadibenzo[cd,h]azulen-5-one [Example 37]”, the IC50 is 20 nM.

Consider “4-cyclopropyl-4,11-dihydro-5H-3,4,10,11-tetraazadibenzo[cd,h]azulen-5-one [Example 33]”, for which the IC50 is 30 nM.

With “4-ethyl-4,11-dihydro-5H-3,4,10,11-tetraazadibenzo[cd,h]azulen-5-one [Example 32]”, the half-inhibitory concentration (IC50) was determined as 34 nM. This IC50 and that of the molecule before are within 1.5-fold of each other.

As for “4-isobutyl-5,11-dihydro-4H-3,4,10,11-tetraazadibenzo[cd,h]azulene [Example 49]”, the IC50 worked out at 67 nM.

For the molecule “4-isopropyl-4,11-dihydro-5H-3,4,10,11-tetraazadibenzo[cd,h]azulen-5-one [Example 34]”, 41 nM corresponded to half-maximal inhibition (IC50).

The molecule “4-isopropyl-4,11-dihydro-5H-3,4,10,11-tetraazadibenzo[cd,h]azulen-5-one [Example 35]” came in with a half-inhibitory concentration (IC50) of 75 nM. Against the preceding molecule, the IC50 is about 1.8-fold higher.

`CN1CCCc2n[nH]c3ccnc1c23` [Example 16, 6-methyl-6,7,8,9-tetrahydro-2H-1,2,5,6-tetraazabenzo[cd]azulene]: the IC50 amounted to 3000 nM.

The molecule `CC(C)CN1CCCc2n[nH]c3ccnc1c23` [Example 20, 6-isobutyl-6,7,8,9-tetrahydro-2H-1,2,5,6-tetraazabenzo[cd]azulene] came in with an IC50 of 450 nM.

The molecule `CN1CCC(N2CCCc3n[nH]c4ccnc2c34)CC1` [Example 26, 6-(1-methylpiperidin-4-yl)-6,7,8,9-tetrahydro-2H-1,2,5,6-tetraazabenzo[cd]azulene] returned an IC50 of 91 nM.

The molecule `OCCN1CCCc2n[nH]c3ccnc1c23` [Example 28, 2-(2,7,8,9-tetrahydro-6H-1,2,5,6-tetraazabenzo[cd]azulen-6-yl)ethan-1-ol] gave a 50% inhibitory concentration (IC50) of 570 nM. Against the preceding molecule, the IC50 is about 6.3-fold higher.

The molecule `CC1Cc2n[nH]c3ccnc(c23)N(C2CCOCC2)C1` (centres unmarked) [Example 30, 8-methyl-6-(tetrahydro-2H-pyran-4-yl)-6,7,8,9-tetrahydro-2H-1,2,5,6-tetraazabenzo[cd]azulene] displayed a 50% inhibitory concentration (IC50) of 250 nM.

`CC(C)N1CCC(N2C(=O)c3ccccc3-c3n[nH]c4ccnc2c34)CC1` [Example 42] displayed a half-inhibitory concentration (IC50) of 31 nM.

As to `c1ccc2c(c1)CN(C1CCCC1)c1nccc3[nH]nc-2c13` [Example 52], the IC50 is 33 nM.

For the molecule `c1ccc(N2Cc3ccccc3-c3n[nH]c4ccnc2c34)cc1` [Example 53], 33 nM corresponded to half-maximal inhibition (IC50). This counts as double-digit nanomolar.

The molecule `O=C1c2n[nH]cc2-c2n[nH]c3ccnc(c23)N1C1CCOCC1` [Example 65, 9-(tetrahydro-2H-pyran-4-yl)-5,9-dihydro-1,2,4,5,8,9-hexaazabenzo[cd]cyclopenta[h]azulen-10(2H)-one] registered a 50% inhibitory concentration (IC50) of 4 nM.

On to `Cn1cc2c(n1)C(=O)N(C1CCOCC1)c1nccc3[nH]nc-2c13` [Example 66, 2-methyl-9-(tetrahydro-2H-pyran-4-yl)-5,9-dihydro-1,2,4,5,8,9-hexaazabenzo[cd]cyclopenta[h]azulen-10(2H)-one], for which the half-inhibitory concentration (IC50) worked out at 26 nM.

Molecule `Cn1ncc2c1C(=O)N(C1CCOCC1)c1nccc3[nH]nc-2c13` [Example 67, 1-methyl-9-(tetrahydro-2H-pyran-4-yl)-5,9-dihydro-1,2,4,5,8,9-hexaazabenzo[cd]cyclopenta[h]azulen-10(1H)-one] had an IC50 of 7 nM.

In turn, `Cn1cc2c(n1)CN(C1CCOCC1)c1nccc3[nH]nc-2c13` [Example 70, 2-methyl-9-(tetrahydro-2H-pyran-4-yl)-2,5,9,10-tetrahydro-1,2,4,5,8,9-hexaazabenzo[cd]cyclopenta[h]azulene] had an IC50 of 23 nM.
